For one experiment, the target named is rhSYK (Homo sapiens, UniProt P43405). The experiment is described as follows: biochemical.
The next experiment relates to PGD2. Particulars: dosed intranasally, phase I/II study, allergic rhinitis; cited from earlier work.

The values that follow come from patent US8551984B2, “Aminopyrimidines as SYK inhibitors” (Merck Sharp & Dohme Corp., priority 2009, dated 2013).

The IC50 is the concentration that gives 50% inhibition. In turn, `NC(=O)[C@H]1CC[C@](O)(c2ncc(-c3cc(Cl)cc(Nc4nccc(C(F)(F)F)n4)c3)s2)CC1` [Example 119-145] returned a 50% inhibitory concentration (IC50) against rhSYK of less than 100 nM.

At rhSYK, `Cc1cc(Nc2nccc(C(F)(F)F)n2)cc(-c2cnc([C@]3(O)CC[C@@H](C(=O)NC(CO)CO)CC3)s2)c1` [Example 191-33] returned a half-inhibitory concentration (IC50) of less than 100 nM. The same measure, in the same setting: the value for `Cc1cc(Nc2nccc(C(F)(F)F)n2)cc(-c2cnc(C3(O)CCC(C(=O)NCc4cccnc4)CC3)s2)c1` (stereo not drawn) [Example 191-52] was less than 100 nM; that for `Cc1cc(Nc2nccc(C(F)(F)F)n2)cc(-c2cnc([C@]3(O)CC[C@@H](C(=O)NCc4ccncc4)CC3)s2)c1` [Example 191-53] was less than 100 nM; that for `CC1(C)CC(O)(c2ncc(-c3cc(CO)cc(Nc4nccc(C(F)(F)F)n4)c3)s2)CCC1C(N)=O` (stereo not drawn) [Example 191-141] was less than 100 nM. Take `Oc1cccc(Nc2ncc(F)c(Nc3cccc(O)c3)n2)c1` [Example R112]: the “decrease in PGD2” value in the experiment with PGD2 is “statistically significant decrease”.
